Measurements published in US20240197726A1, “NOVEL TETRAHYDROISOQUINOLINE ALKALOID COMPOUND CONTAINING MACROCYCLE” (THE UNIVERSITY OF TOKYO, priority 2021, published 2024).
Where two headings read alike, the source gives them in different places.

What was measured:
[1] = tested on: MCF-7 breast cancer cells; conditions: cited from earlier work
[2] = tested on: MDA-MB-231 breast cancer cells; conditions: cited from earlier work
[3] = tested on: HT-29 colorectal cancer cells; conditions: cited from earlier work
[4] = tested on: HCT-116 colorectal cancer cells; conditions: cited from earlier work
[5] = tested on: NCI-H23 lung cancer cells; conditions: cited from earlier work
[6] = tested on: NCI-H460 lung cancer cells; conditions: cited from earlier work
A549 lung cancer cells [7] = conditions: cited from earlier work
[8] = tested on: HBC-4 breast cancer cells; assay: antitumor activity, sulforhodamine B cell growth assay, HBC-4; format: cell-based; conditions: HBC-4 breast cancer cells; read-out: antitumor activity GI50 value: 50% growth inhibitory concentration
Method: (§1) The THIQ compound containing a macrocyclic structure of the present invention was administered to various cancer cell lines, and the antitumor activity (Go value) was observed. Specifically, verification was performed according to the literature (Yamori, T.; Matsunaga, A.; Sato, S.; Yamazaki, K.; Komi, A.; Ishizu, K. et al. Cancer Res. 1999, 59, 4042) by the following procedure.
(§2) Cells were plated at an appropriate density in a 96-well plate in RPMI 1640 together with 5% fetal bovine serum, and adhered overnight. The cells were exposed to a drug for 48 hours. Then, according to the sulforhodamine B assay described by Skehan et al (Skehan P., Storeng R., Scudiero D., Monks A., McMahon J., Vistica D., Warren J. T., Bokesch H., Kenney S., Boyd M. R. J Natl. Cancer Inst, 1990, 82, 1107-1112), the cell growth rate was measured. The absorbance of the control well (C) and the test well (T) was measured at 525 nm. In addition, the time at which the drug was added was set as time 0, and the absorbance for the test well (T0) was measured. Using these measured values, the cell growth inhibitory effect (% growth=PG) was calculated by the following formula at each concentration of the drug.
(§3) (T<T0): PG=100×[(T−T0)/T]
(§4) The PG values determined above for each cell line were plotted against the concentration (logarithm) on a semi-logarithmic graph, and summarized for each visceral cancer. Concentrations at which the dose-response curve of each cell line crossed the horizontal line of PG=50%, 0%, or −50% were calculated. These concentrations were defined as Log GI50, Log TGI, and Log LC50. Actually, using two data points of the drug concentration before and after crossing each horizontal line, the drug concentration (logarithmic value) at the intersection of the straight line connecting the two points and the horizontal line for each PG was calculated.

[9] = tested on: BSY-1 breast cancer cells; assay: antitumor activity, sulforhodamine B cell growth assay, BSY-1; format: cell-based; conditions: BSY-1 breast cancer cells; read-out: antitumor activity GI50 value: 50% growth inhibitory concentration
Method: as §1, §2, §3, §4

[10] = tested on: HBC-5 breast cancer cells; assay: antitumor activity, sulforhodamine B cell growth assay, HBC-5; format: cell-based; conditions: HBC-5 breast cancer cells; read-out: antitumor activity GI50 value: 50% growth inhibitory concentration
Method: as §1, §2, §3, §4

[11] = tested on: MDA-MB-231 breast cancer cells; assay: antitumor activity, sulforhodamine B cell growth assay, MDA-MB-231; format: cell-based; conditions: MDA-MB-231 breast cancer cells; read-out: antitumor activity GI50 value: 50% growth inhibitory concentration
Method: as §1, §2, §3, §4

[12] = tested on: U251 central nervous system cancer cells; assay: antitumor activity, sulforhodamine B cell growth assay, U251; format: cell-based; conditions: U251 central nervous system cancer cells; read-out: antitumor activity GI50 value: 50% growth inhibitory concentration
Method: as §1, §2, §3, §4

[13] = tested on: SF-295 central nervous system cancer cells; assay: antitumor activity, sulforhodamine B cell growth assay, SF-295; format: cell-based; conditions: SF-295 central nervous system cancer cells; read-out: antitumor activity GI50 value: 50% growth inhibitory concentration
Method: as §1, §2, §3, §4

[14] = tested on: SF-539 central nervous system cancer cells; assay: antitumor activity, sulforhodamine B cell growth assay, SF-539; format: cell-based; conditions: SF-539 central nervous system cancer cells; read-out: antitumor activity GI50 value: 50% growth inhibitory concentration
Method: as §1, §2, §3, §4

[15] = tested on: SNB-75 central nervous system cancer cells; assay: antitumor activity, sulforhodamine B cell growth assay, SNB-75; format: cell-based; conditions: SNB-75 central nervous system cancer cells; read-out: antitumor activity GI50 value: 50% growth inhibitory concentration
Method: as §1, §2, §3, §4

[16] = tested on: SNB-78 central nervous system cancer cells; assay: antitumor activity, sulforhodamine B cell growth assay, SNB-78; format: cell-based; conditions: SNB-78 central nervous system cancer cells; read-out: antitumor activity GI50 value: 50% growth inhibitory concentration
Method: as §1, §2, §3, §4

[17] = tested on: HCC2998 colorectal cancer cells; assay: antitumor activity, sulforhodamine B cell growth assay, HCC2998; format: cell-based; conditions: HCC2998 colorectal cancer cells; read-out: antitumor activity GI50 value: 50% growth inhibitory concentration
Method: as §1, §2, §3, §4

[18] = tested on: KM-12 colorectal cancer cells; assay: antitumor activity, sulforhodamine B cell growth assay, KM-12; format: cell-based; conditions: KM-12 colorectal cancer cells; read-out: antitumor activity GI50 value: 50% growth inhibitory concentration
Method: as §1, §2, §3, §4

[19] = tested on: HT-29 colorectal cancer cells; assay: antitumor activity, sulforhodamine B cell growth assay, HT-29; format: cell-based; conditions: HT-29 colorectal cancer cells; read-out: antitumor activity GI50 value: 50% growth inhibitory concentration
Method: as §1, §2, §3, §4

[20] = tested on: HCT-15 colorectal cancer cells; assay: antitumor activity, sulforhodamine B cell growth assay, HCT-15; format: cell-based; conditions: HCT-15 colorectal cancer cells; read-out: antitumor activity GI50 value: 50% growth inhibitory concentration
Method: as §1, §2, §3, §4

[21] = tested on: HCT-116 colorectal cancer cells; assay: antitumor activity, sulforhodamine B cell growth assay, HCT-116; format: cell-based; conditions: HCT-116 colorectal cancer cells; read-out: antitumor activity GI50 value: 50% growth inhibitory concentration
Method: as §1, §2, §3, §4

[22] = tested on: NCI-H226 lung cancer cells; assay: antitumor activity, sulforhodamine B cell growth assay, NCI-H226; format: cell-based; conditions: NCl-H226 lung cancer cells; read-out: antitumor activity GI50 value: 50% growth inhibitory concentration
Method: as §1, §2, §3, §4

[23] = tested on: NCI-H522 lung cancer cells; assay: antitumor activity, sulforhodamine B cell growth assay, NCI-H522; format: cell-based; conditions: NCl-H522 lung cancer cells; read-out: antitumor activity GI50 value: 50% growth inhibitory concentration
Method: as §1, §2, §3, §4

[24] = tested on: NCI-H460 lung cancer cells; assay: antitumor activity, sulforhodamine B cell growth assay, NCI-H460; format: cell-based; conditions: NCl--H460 lung cancer cells; read-out: antitumor activity GI50 value: 50% growth inhibitory concentration
Method: as §1, §2, §3, §4

A549 lung cancer cells [25] = assay: antitumor activity, sulforhodamine B cell growth assay, A549; format: cell-based; conditions: A549 lung cancer cells; read-out: antitumor activity GI50 value: 50% growth inhibitory concentration
Method: as §1, §2, §3, §4

DMS273 lung cancer cells = assay: antitumor activity, sulforhodamine B cell growth assay, DMS273; format: cell-based; conditions: DMS273 lung cancer cells; read-out: antitumor activity GI50 value: 50% growth inhibitory concentration
Method: as §1, §2, §3, §4

DMS114 lung cancer cells = assay: antitumor activity, sulforhodamine B cell growth assay, DMS114; format: cell-based; conditions: DMS114 lung cancer cells; read-out: antitumor activity GI50 value: 50% growth inhibitory concentration
Method: as §1, §2, §3, §4

LOX-IMVI melanoma cells = assay: antitumor activity, sulforhodamine B cell growth assay, LOX-IMVI; format: cell-based; conditions: LOX-IMVI melanoma cells; read-out: antitumor activity GI50 value: 50% growth inhibitory concentration
Method: as §1, §2, §3, §4

SK-OV-3 cancer cells = assay: antitumor activity, sulforhodamine B cell growth assay, SK-OV-3; format: cell-based; conditions: SK-OV-3 cervical cancer cells; read-out: antitumor activity GI50 value: 50% growth inhibitory concentration
Method: as §1, §2, §3, §4

ACHN kidney cancer cells = assay: antitumor activity, sulforhodamine B cell growth assay, ACHN; format: cell-based; conditions: ACHN kidney cancer cells; read-out: antitumor activity GI50 value: 50% growth inhibitory concentration
Method: as §1, §2, §3, §4

[26] = tested on: St-4 gastric cancer cells; assay: antitumor activity, sulforhodamine B cell growth assay, St-4; format: cell-based; conditions: SI-4 gastric cancer cells; read-out: antitumor activity GI50 value: 50% growth inhibitory concentration
Method: as §1, §2, §3, §4

[27] = tested on: MKN1 gastric cancer cells; assay: antitumor activity, sulforhodamine B cell growth assay, MKN1; format: cell-based; conditions: MKN1 gastric cancer cells; read-out: antitumor activity GI50 value: 50% growth inhibitory concentration
Method: as §1, §2, §3, §4

[28] = tested on: MKN-B gastric cancer cells; assay: antitumor activity, sulforhodamine B cell growth assay, MKN-B; format: cell-based; conditions: MKN-B gastric cancer cells; read-out: antitumor activity GI50 value: 50% growth inhibitory concentration
Method: as §1, §2, §3, §4

[29] = tested on: MKN-A gastric cancer cells; assay: antitumor activity, sulforhodamine B cell growth assay, MKN-A; format: cell-based; conditions: MKN-A gastric cancer cells; read-out: antitumor activity GI50 value: 50% growth inhibitory concentration
Method: as §1, §2, §3, §4

[30] = tested on: MKN45 gastric cancer cells; assay: antitumor activity, sulforhodamine B cell growth assay, MKN45; format: cell-based; conditions: MKN45 gastric cancer cells; read-out: antitumor activity GI50 value: 50% growth inhibitory concentration
Method: as §1, §2, §3, §4

[31] = tested on: DU-145 prostate cancer cells; assay: antitumor activity, sulforhodamine B cell growth assay, DU-145; format: cell-based; conditions: DU-145 prostate cancer cells; read-out: antitumor activity GI50 value: 50% growth inhibitory concentration
Method: as §1, §2, §3, §4

COc1cc2c(cc1O)CCN[C@]21CS[C@@H]2c3c(OC(C)=O)c(C)c4c(c3[C@H](COC1=O)N1[C@@H]2[C@H]2c3c(cc(C)c(OC)c3O)C[C@@H]([C@@H]1O)N2C)OCO4 [Ecteinascidin 743, reference compound]
GI50 ([1]; MCF-7, reference values from literature (Leal et al. Br. J Pharmacol, 2010), read-out: GI50 value: 50% growth inhibitory concentration): 2.6 nM | GI50 ([2]; MDA-MB-231, reference values from literature (Leal et al. Br. J Pharmacol, 2010), read-out: GI50 value: 50% growth inhibitory concentration): 3.9 nM | GI50 ([3]; HT-29, reference values from literature (Leal et al. Br. J Pharmacol, 2010), read-out: GI50 value: 50% growth inhibitory concentration): 9.8 nM | GI50 ([4]; HCT-116, reference values from literature (Leal et al. Br. J Pharmacol, 2010), read-out: GI50 value: 50% growth inhibitory concentration): 4.9 nM | GI50 ([5]; NCI-H23, reference values from literature (Leal et al. Br. J Pharmacol, 2010), read-out: GI50 value: 50% growth inhibitory concentration): 2.1 nM | GI50 ([6]; NCI-H460, reference values from literature (Leal et al. Br. J Pharmacol, 2010), read-out: GI50 value: 50% growth inhibitory concentration): 1.8 nM | GI50 (A549 lung cancer cells [7]; A549, reference values from literature (Leal et al. Br. J Pharmacol, 2010), read-out: GI50 value: 50% growth inhibitory concentration): 10.4 nM

COc1c(C)cc2c(c1C)[C@H]1N(C)[C@@](C)(C2)C(C)N2C1(C)[C@@H]1CCC3(NCCc4cc(C)c(C)cc43)C(=O)OC[C@@]2(C)c2c3c(c(C)c(C)c21)OCO3 (stereo partly shown)
GI50 ([1]; MCF-7 breast cancer cells, comparative value based on the literature, read-out: antitumor activity GI50 value: 50% growth inhibitory concentration): 2.6 nM | GI50 ([2]; MDA-MB-231 breast cancer cells, comparative value based on the literature, read-out: antitumor activity GI50 value: 50% growth inhibitory concentration): 3.9 nM | GI50 ([3]; HT-29 colorectal cancer cells, comparative value based on the literature, read-out: antitumor activity GI50 value: 50% growth inhibitory concentration): 9.8 nM | GI50 ([4]; HCT-116 colorectal cancer cells, comparative value based on the literature, read-out: antitumor activity GI50 value: 50% growth inhibitory concentration): 4.9 nM | GI50 ([5]; NCl-H23 lung cancer cells, comparative value based on the literature, read-out: antitumor activity GI50 value: 50% growth inhibitory concentration): 2.1 nM | GI50 ([6]; NCl--H460 lung cancer cells, comparative value based on the literature, read-out: antitumor activity GI50 value: 50% growth inhibitory concentration): 1.8 nM | GI50 (A549 lung cancer cells [7]; A549 lung cancer cells, comparative value based on the literature, read-out: antitumor activity GI50 value: 50% growth inhibitory concentration): 10.4 nM

CC1=C(C)C(=O)C2=C(CC3(C)[C@H]4c5c(cc(C)c(C)c5C)C[C@@](C)(C(C)N3[C@H]2CNC(=O)C(C)C)N4C)C1=O (stereo partly shown) [drawing 164]
GI50 [8]: 59 nM | GI50 [9]: 34 nM | GI50 [10]: 62 nM | GI50 [11]: 130 nM | GI50 [12]: 370 nM | GI50 [13]: 500 nM | GI50 [14]: 180 nM | GI50 [15]: 150 nM | GI50 [16]: 63 nM | GI50 [17]: 350 nM | GI50 [18]: 530 nM | GI50 [19]: 190 nM | GI50 [20]: 390 nM | GI50 [21]: 290 nM | GI50 [22]: 310 nM | GI50 [23]: 43 nM | GI50 [24]: 400 nM | GI50 (A549 lung cancer cells [25]): 1600 nM | GI50 (DMS273 lung cancer cells): 270 nM | GI50 (DMS114 lung cancer cells): 35 nM | GI50 (LOX-IMVI melanoma cells): 61 nM | GI50 (SK-OV-3 cancer cells): 540 nM | GI50 (ACHN kidney cancer cells): 320 nM | GI50 [26]: 430 nM | GI50 [27]: 52 nM | GI50 [28]: 170 nM | GI50 [29]: 250 nM | GI50 [30]: 300 nM | GI50 [31]: 490 nM
